System: K98450-129-R-PDC complex spheroid growth, percent test/control
Experiment: Anticancer human tumor K98450-129-R-PDC patient-derived colon adenocarcinoma cell line growth inhibition [RAS]
Conditions: for IC50: curve of first compound; for viability, T/C: stronger effect = lower value; active means viability on the fitted dose curve at most 10% of control; inactive means the rest
Procedure, shortened: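 Multi-cell-type spheroids: tumor cells plus HUVEC endothelial cells and mesenchymal stem cells. RAS-pathway inhibitors were combined with targeted agents, each dosed in half-log steps down from clinical Cmax, or from 10 microM when Cmax was unknown.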

[1] = second compound 0.00316 µM, first compound 0.0316 µM
[2] = second compound 0.00316 µM, first compound 0.1 µM
[3] = second compound 0.00316 µM, first compound 0.316 µM
[4] = second compound 0.00316 µM, first compound 1 µM
[5] = second compound 0.01 µM, first compound 0.0316 µM
[6] = second compound 0.01 µM, first compound 0.1 µM
[7] = second compound 0.01 µM, first compound 0.316 µM
[8] = second compound 0.01 µM, first compound 1 µM
[9] = second compound 0.0316 µM, first compound 0.0316 µM
[10] = second compound 0.0316 µM, first compound 0.1 µM
[11] = second compound 0.0316 µM, first compound 0.316 µM
[12] = second compound 0.0316 µM, first compound 1 µM
[13] = second compound 0.1 µM, first compound 0.0316 µM
[14] = second compound 0.1 µM, first compound 0.1 µM
[15] = second compound 0.1 µM, first compound 0.316 µM
[16] = second compound 0.1 µM, first compound 1 µM
[17] = second compound 0.316 µM, first compound 0.0316 µM
[18] = second compound 0.316 µM, first compound 0.1 µM
[19] = second compound 0.316 µM, first compound 0.316 µM
[20] = second compound 0.316 µM, first compound 1 µM
[21] = second compound 1 µM, first compound 0.0316 µM
[22] = second compound 1 µM, first compound 0.1 µM
[23] = second compound 1 µM, first compound 0.316 µM
[24] = second compound 1 µM, first compound 1 µM
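Further: spheroids exposed to agents for seven days before the viability readout.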
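Wherever viability, T/C is given: luminescence used as a proxy for viable cell amount.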

C=CC(=O)Nc1cc(Nc2nccc(-c3cn(C)c4ccccc34)n2)c(OC)cc1N(C)CCN(C)C + C=CC(=O)N1CCN(c2nc(OCC3CCCN3C)nc3c(F)c(-c4nc(N)cc(C)c4C(F)(F)F)c(Cl)cc23)C(C)C1
inactive: viability, T/C (second compound 0.00316 µM, first compound 0.00316 µM) 93.5% | viability, T/C (second compound 0.00316 µM, first compound 0.01 µM) 85.9% | viability, T/C [1] 91% | viability, T/C [2] 83.5% | viability, T/C [3] 25.5% | viability, T/C (second compound 0.01 µM, first compound 0.00316 µM) 94.4% | viability, T/C (second compound 0.01 µM, first compound 0.01 µM) 78% | viability, T/C [5] 85.2% | viability, T/C [6] 71.3% | viability, T/C [7] 11.4% | viability, T/C (second compound 0.0316 µM, first compound 0.00316 µM) 70.3% | viability, T/C (second compound 0.0316 µM, first compound 0.01 µM) 70.4% | viability, T/C [9] 63.6% | viability, T/C [10] 34.3% | viability, T/C [11] 9.39% | viability, T/C (second compound 0.1 µM, first compound 0.00316 µM) 56.3% | viability, T/C (second compound 0.1 µM, first compound 0.01 µM) 47.9% | viability, T/C [13] 38.7% | viability, T/C [14] 17.6% | viability, T/C (second compound 0.316 µM, first compound 0.00316 µM) 39% | viability, T/C (second compound 0.316 µM, first compound 0.01 µM) 34.4% | viability, T/C [17] 29.3% | viability, T/C [18] 13.7% | viability, T/C [19] 10.3% | viability, T/C (second compound 1 µM, first compound 0.00316 µM) 30.4% | viability, T/C (second compound 1 µM, first compound 0.01 µM) 27.1% | viability, T/C [21] 22.6% | viability, T/C [22] 13.8% | viability, T/C [23] 10.9%
0.194 µM: IC50 (second compound 0.00316 µM)
0.0543 µM: IC50 (second compound 0.0316 µM)
0.0105 µM: IC50 (second compound 0.1 µM)
0.151 µM: IC50 (second compound 0.01 µM)
< 0.00316 µM: IC50 (second compound 0.316 µM) | IC50 (second compound 1 µM)
active: viability, T/C [4] 9.6% | viability, T/C [8] 8.81% | viability, T/C [12] 8.93% | viability, T/C [15] 8.42% | viability, T/C [16] 8.07% | viability, T/C [20] 9.33% | viability, T/C [24] 9.84%

CC(C)NCC(C(=O)N1CCN(c2ncnc3c2C(C)CC3O)CC1)c1ccc(Cl)cc1 (centres undefined) + C=CC(=O)N1CCN(c2nc(OCC3CCCN3C)nc3c(F)c(-c4nc(N)cc(C)c4C(F)(F)F)c(Cl)cc23)C(C)C1
inactive: viability, T/C [1] 94.4% | viability, T/C [2] 97.7% | viability, T/C [3] 94.8% | viability, T/C [4] 93.2% | viability, T/C (second compound 0.00316 µM, first compound 3.16 µM) 91.4% | viability, T/C (second compound 0.00316 µM, first compound 10 µM) 91.2% | viability, T/C [5] 89.3% | viability, T/C [6] 81.3% | viability, T/C [7] 85.1% | viability, T/C [8] 84.6% | viability, T/C (second compound 0.01 µM, first compound 3.16 µM) 83.8% | viability, T/C (second compound 0.01 µM, first compound 10 µM) 85.3% | viability, T/C [9] 70% | viability, T/C [10] 63.7% | viability, T/C [11] 65.9% | viability, T/C [12] 67.3% | viability, T/C (second compound 0.0316 µM, first compound 3.16 µM) 75% | viability, T/C (second compound 0.0316 µM, first compound 10 µM) 75.5% | viability, T/C [13] 53.1% | viability, T/C [14] 52.5% | viability, T/C [15] 53.7% | viability, T/C [16] 57% | viability, T/C (second compound 0.1 µM, first compound 3.16 µM) 54.8% | viability, T/C (second compound 0.1 µM, first compound 10 µM) 49.6% | viability, T/C [17] 38.3% | viability, T/C [18] 42.1% | viability, T/C [19] 41% | viability, T/C [20] 43.7% | viability, T/C (second compound 0.316 µM, first compound 3.16 µM) 42.6% | viability, T/C (second compound 0.316 µM, first compound 10 µM) 36.4% | viability, T/C [21] 31.4% | viability, T/C [22] 32.7% | viability, T/C [23] 35.9% | viability, T/C [24] 32.1% | viability, T/C (second compound 1 µM, first compound 3.16 µM) 32.7% | viability, T/C (second compound 1 µM, first compound 10 µM) 29%
< 0.0316 µM: IC50 (second compound 0.316 µM) | IC50 (second compound 1 µM)
> 10 µM: IC50 (second compound 0.00316 µM) | IC50 (second compound 0.01 µM) | IC50 (second compound 0.0316 µM) | IC50 (second compound 0.1 µM)
